Where two headings read alike, the source gives them in different places. Marks after values point to notes of the source that are not given here.
Key:
[1] = cited from earlier work
[2] = system: isolated rat liver mitochondria; assay: Mitochondrial toxicity, any endpoint, intact mitochondria and submitochondrial particles; assay type: biochemical; conditions: for lowest concentration causing significant mitochondrial toxicity: any endpoint
Protocol: Rats were anesthetized by an intraperitoneal injection of Nembutal and the liver perfused with PBS to remove the blood. The liver was then cut into small pieces and homogenized using a Dounce type homogenizer in the ice-cold isolation buffer (IB) containing 200 mM sucrose, 10 mM Tris-MOPS, 1 mM EGTA (pH 7.4). The sample was then centrifuged at 600g for 10 min. The supernatant was further centrifuged at 7500g for 10 min, and the pellets was washed once with the IB and centrifuged again at 7500g for 10 min to collect mitochondria. […] Before drug treatment, the protein concentration was adjusted to 1 mg/ml using appropriate buffer. […] Briefly, mitochondrial and cytosolic fractions from four different preparations using four rats were diluted using the Laemmli protein loading buffer and subject to SDS-PAGE with 4–20% gradient gels. The proteins were blotted to PVDF membranes and detected using antibodies against GAPDH, ATP5A, UQCRC2, SDHB, and NDUFB8.
The aliquoted stock solutions were kept for less than one month and each tube was used only once. The KIs were added to the mitochondria at 1:1000 dilutions. […] The Cmax data were from clinical trials which used FDA recommend dosages, route of administration, and duration. […] The final concentration of DMSO for drug treatment was always 0.1%, and control treatments were 0.1% DMSO.

[3] = cited from earlier work; remark: listed apart in the source
[4] = system: isolated rat liver mitochondria; conditions: for lowest concentration causing cytochrome c release: rat, 30 min, pH 7.4
[5] = system: isolated rat liver mitochondria; assay: Mitochondrial oxygen consumption (glutamate/malate or succinate driven, state 4 and state 3); assay type: biochemical; conditions: for Glutamate/malate driven respiration State 3 / Glutamate/malate driven respiration State 4 / Succinate-driven respiration State 3 / Succinate-driven respiration State 4: oxygen consumption, DMSO-treated = 1; for State 3 respiration driven by succinate at 10XCmax: key: 0 indicates that the drug had no effects (negative); for State 3 respiration driven by succinate at 1XCmax: key: 0 indicates that the drug had no effects (negative)
How it was run: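 Rat liver mitochondria (1 mg/ml protein) exposed 5 min to kinase inhibitors in 0.1% DMSO, then O2 consumption measured by Clark-type electrode with glutamate/malate or succinate (state 4), ADP added after 3 min (state 3). Rates normalized to 0.1% DMSO controls set to 1.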

[6] = system: isolated rat liver mitochondria; assay: Mitochondrial ROS production (CM-H2DCFDA)
[7] = system: isolated rat liver mitochondria; assay: Mitochondrial inner membrane potential (MMP), Rhodamine 123; assay type: biochemical; conditions: difference in signal between KI and DMSO treated samples at the end of experiments
From the text: Fig. 3 KI effects on mitochondrial inner membrane potential (MMP). […] In a, c, data are means and standard derivations from three separate experiments. *p < 0.05 as compared to DMSO-treated samples at the end of experiments. In b, data are means of two independent experiments

RCC II = biological target: T1, RCC II (Rattus norvegicus, UniProt P21913+Q641Z9+Q6PCT8+Q920L2); assay: RCC II activity in submitochondrial particles; assay type: biochemical; design: key: activity relative to DMSO-treated controls (control set as 1 = 100%); conditions: DMSO treated samples set as 1
T1 construct: Submitochondrial particles were prepared by subjecting the intact mitochondria to three successive freeze–thaw cycles; from tissue; host or cells: rat liver mitochondria, used as submitochondrial particles
How it was run: (§1)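 Kinase inhibitors were preincubated 15 min with submitochondrial particles (1 mg/ml) before complex activities were measured. RCC I was the rotenone-sensitive portion (activity without minus with rotenone). RCC I/V was read at 340 nm and RCC II at 600 nm every 1 min for 6 min. RCC III and IV were read at 550 nm every 10 s for 2 min. Activities are normalized to DMSO controls set as 1.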

RCC I = RCC I activity in submitochondrial particles; assay type: biochemical, rat; design: key to RCC I at 10XCmax / RCC I at 100XCmax / RCC I at 50XCmax / RCC I at 30XCmax / RCC I at 20XCmax: activity relative to DMSO-treated controls (control set as 1 = 100%)
How it was run: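 Abs 340 nm (I/V) or 600 nm (II), 1-min reads × 6 min; 550 nm (III, IV), 10-s reads × 2 min. RCC I = rotenone-free minus rotenone rate. DMSO control = 1.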

[8] = ref product labeling; cited from earlier work
RCC V = RCC V activity in submitochondrial particles; assay type: biochemical, rat; conditions: 5XCmax; DMSO treated samples set as 1; note: key: 0 indicates that the drug had no effects (negative)
How it was run: as §1

[9] = system: isolated rat liver mitochondria; assay: Mitochondrial swelling (absorbance at 535 nm); assay type: biochemical; conditions: difference in signal between KI and DMSO treated samples at the end of experiments; for Swelling 5XCmax: key: 0 indicates that the drug had no effects (negative)
[10] = human therapeutic Cmax at FDA recommended dosages, ref product labeling and drug approval packages at the official FDA website
[11] = 1XCmax, DMSO treated samples set as 1
[12] = 2.5XCmax, DMSO treated samples set as 1
[13] = 5XCmax, DMSO treated samples set as 1
[14] = 10XCmax, DMSO treated samples set as 1
[15] = 20XCmax, DMSO treated samples set as 1
[16] = 30XCmax, DMSO treated samples set as 1

T1 sequence (Q920L2 35-656): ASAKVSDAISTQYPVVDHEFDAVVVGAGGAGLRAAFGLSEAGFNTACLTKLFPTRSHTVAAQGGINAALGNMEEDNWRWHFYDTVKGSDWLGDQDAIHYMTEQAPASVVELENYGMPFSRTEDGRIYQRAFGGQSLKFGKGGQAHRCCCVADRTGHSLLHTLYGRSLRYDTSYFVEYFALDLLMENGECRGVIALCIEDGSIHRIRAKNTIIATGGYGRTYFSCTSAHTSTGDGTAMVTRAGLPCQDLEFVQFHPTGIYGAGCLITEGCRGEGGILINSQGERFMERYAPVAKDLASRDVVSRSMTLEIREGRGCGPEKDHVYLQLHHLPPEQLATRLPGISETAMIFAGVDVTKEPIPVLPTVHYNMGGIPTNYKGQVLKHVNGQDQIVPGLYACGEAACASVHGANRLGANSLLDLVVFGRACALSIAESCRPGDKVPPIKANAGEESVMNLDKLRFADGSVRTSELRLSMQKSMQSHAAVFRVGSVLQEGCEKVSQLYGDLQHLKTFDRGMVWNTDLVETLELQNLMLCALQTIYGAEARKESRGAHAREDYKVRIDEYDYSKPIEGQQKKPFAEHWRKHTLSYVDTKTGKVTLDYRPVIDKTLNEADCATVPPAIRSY
T1 sequence (P21913 31-282): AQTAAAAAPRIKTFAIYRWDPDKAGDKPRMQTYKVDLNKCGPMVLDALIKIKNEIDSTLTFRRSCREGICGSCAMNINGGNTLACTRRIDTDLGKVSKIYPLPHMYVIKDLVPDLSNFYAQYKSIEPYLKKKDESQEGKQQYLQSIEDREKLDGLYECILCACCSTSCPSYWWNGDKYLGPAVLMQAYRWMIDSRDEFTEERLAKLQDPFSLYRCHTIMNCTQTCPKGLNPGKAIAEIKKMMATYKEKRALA
T1 sequence (Q641Z9 1-169): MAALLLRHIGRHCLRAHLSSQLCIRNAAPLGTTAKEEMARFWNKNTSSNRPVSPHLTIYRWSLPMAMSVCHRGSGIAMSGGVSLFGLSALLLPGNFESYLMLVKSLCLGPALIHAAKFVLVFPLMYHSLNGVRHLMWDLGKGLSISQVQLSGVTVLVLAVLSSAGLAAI
T1 sequence (Q6PCT8 57-159): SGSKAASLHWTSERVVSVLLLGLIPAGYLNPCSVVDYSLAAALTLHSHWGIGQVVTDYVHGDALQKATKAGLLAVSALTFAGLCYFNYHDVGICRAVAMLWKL

N#CC[C@H](C1CCCC1)n1cc(-c2ncnc3[nH]ccc23)cn1 [Ruxolitinib]
DILI potential (based on labeling) ([1]; ref FDA product labeling): 0 | lowest concentration causing significant mitochondrial toxicity [2]: 20 fold Cmax | Cmax [3, 10]: 1.2 µM | lowest concentration causing cytochrome c release [4]: 50 fold Cmax | Glutamate/malate driven respiration State 3 ([5]; 20-fold Cmax): 0.62 ± 0.05 | Glutamate/malate driven respiration State 4 ([5]; 20-fold Cmax): 0.81 ± 0.05 | Succinate-driven respiration State 3 ([5]; 20-fold Cmax): 0.90 ± 0.13 | Succinate-driven respiration State 4 ([5]; 20-fold Cmax): 1.00 ± 0.14 | Glutamate/malate driven respiration State 3 ([5]; 30-fold Cmax): 0.54 ± 0.02 | Glutamate/malate driven respiration State 4 ([5]; 30-fold Cmax): 1.00 ± 0.09 | Succinate-driven respiration State 3 ([5]; 30-fold Cmax): 1.05 ± 0.11 | Succinate-driven respiration State 4 ([5]; 30-fold Cmax): 1.08 ± 0.09 | Glutamate/malate driven respiration State 3 ([5]; 50-fold Cmax): 0.49 ± 0.06 | Glutamate/malate driven respiration State 4 ([5]; 50-fold Cmax): 0.97 ± 0.20 | Succinate-driven respiration State 3 ([5]; 50-fold Cmax): 0.87 ± 0.08 | Succinate-driven respiration State 4 ([5]; 50-fold Cmax): 1.07 ± 0.07 | Glutamate/malate driven respiration State 3 ([5]; 100-fold Cmax): 0.28 ± 0.06 | Glutamate/malate driven respiration State 4 ([5]; 100-fold Cmax): 0.71 ± 0.08 | Succinate-driven respiration State 3 ([5]; 100-fold Cmax): 0.99 ± 0.03 | Succinate-driven respiration State 4 ([5]; 100-fold Cmax): 1.17 ± 0.12 | lowest concentration significantly affecting mitochondrial oxygen consumption ([5]; tested at 1 to 100-fold Cmax): 20 fold Cmax

C=CC(=O)Nc1cc(Nc2nccc(-c3cn(C)c4ccccc34)n2)c(OC)cc1N(C)CCN(C)C [Osimertinib]
lowest concentration triggering ROS overproduction [6]: 30 fold Cmax | lowest concentration causing significant mitochondrial toxicity [2]: 30 fold Cmax | Cmax [3, 10]: 0.5 µM | lowest concentration causing cytochrome c release [4]: 100 fold Cmax

CCN(CC)CCNC(=O)c1c(C)[nH]c(/C=C2\C(=O)Nc3ccc(F)cc32)c1C [Sunitinib]
labeling for DILI ([1]; W&P warnings and precautions, BBW black box warnings, ref FDA product labeling): BBW: fatal DILI | DILI potential (based on labeling) ([1]; ref FDA product labeling): 1 | effects on intact mitochondria or submitochondrial particles ([2]; highest concentrations tested): no effects | Cmax [3, 10]: 0.12 µM | Cmax ([3]; ref Porceddu et al. [2012]): 70.8 µM

CS(=O)(=O)CCNCc1ccc(-c2ccc3ncnc(Nc4ccc(OCc5cccc(F)c5)c(Cl)c4)c3c2)o1 [Lapatinib]
labeling for DILI ([1]; in vivo): BBW: fatal DILI | DILI potential (based on labeling) ([1]; ref FDA product labeling): 1 | mitochondrial injury ([2]; concentrations equal to 100-fold Cmax): mitochondrial injury was induced

COc1cc2nccc(Oc3ccc(NC(=O)C4(C(=O)Nc5ccc(F)cc5)CC4)cc3)c2cc1OC [cabozantinib malate]
ROS measured by CM-H2DCFDA at 1XCmax [6, 11]: 0 | ROS measured by CM-H2DCFDA at 2.5XCmax [6, 12]: 0 | ROS measured by CM-H2DCFDA at 5XCmax [6, 13]: 0 | ROS measured by CM-H2DCFDA at 10XCmax [6, 14]: 0 | ROS measured by CM-H2DCFDA at 20XCmax [6, 15]: 0 | ROS measured by CM-H2DCFDA at 30XCmax [6, 16]: 0 | DILI potential (based on labeling) ([1]; 1 DILI positive, 0 negative according to labeling, ref product labeling): 0 | Cmax (ng or µg/ml) ([3]; human therapeutic maximal blood concentration, ref product labeling): 1.64 µg/mL | Cmax ([3]; read-out: Cmax at µM, human therapeutic maximal blood concentration, ref product labeling): 2.58 µM | MMP measured by Rhodamine 123 at 1XCmax ([7]; 1XCmax): 0 | MMP measured by Rhodamine 123 at 2.5XCmax ([7]; 2.5XCmax): 0 | MMP measured by Rhodamine 123 at 5XCmax ([7]; 5XCmax): 0 | MMP measured by Rhodamine 123 at 10XCmax ([7]; 10XCmax): 945±179* | MMP measured by Rhodamine 123 at 20XCmax ([7]; 20XCmax): 1828±818* | MMP measured by Rhodamine 123 at 30XCmax ([7]; 30XCmax): 2071±803* | Cytochrome c release 1XCmax ([4]; 1XCmax, positive control alamethicin treated samples): 0 | Cytochrome c release 2.5XCmax ([4]; 2.5XCmax, positive control alamethicin treated samples): 0 | Cytochrome c release 5XCmax ([4]; 5XCmax, positive control alamethicin treated samples): 0 | Cytochrome c release 10XCmax ([4]; 10XCmax, positive control alamethicin treated samples): 0 | Cytochrome c release 20XCmax ([4]; 20XCmax, positive control alamethicin treated samples): 0 | Cytochrome c release 30XCmax ([4]; 30XCmax, positive control alamethicin treated samples): 0 | RCC II at 1.0XCmax (RCC II; 1.0XCmax): 0 | RCC II at 2.5XCmax (RCC II; 2.5XCmax): 0 | RCC II at 5XCmax (RCC II; 5XCmax): 0 | RCC II at 10XCmax (RCC II; 10XCmax): 0 | RCC II at 20XCmax (RCC II; 20XCmax): 0 | RCC II at 30XCmax (RCC II; 30XCmax): 79.26±6.01 | RCC I at 10XCmax (RCC I; [14]): 0 | RCC I at 30XCmax (RCC I; 30XCmax, DMSO-treated = 100): 80.97±2.99 | Potential for cardiotoxicity (based on labeling) [8]: 0 | State 3 respiration driven by succinate at 1XCmax [5, 11]: 0 | State 4 respiration driven by succinate at 1XCmax [5, 11]: 0 | State 3 respiration driven by succinate at 2.5XCmax [5, 12]: 0 | State 4 respiration driven by succinate at 2.5XCmax [5, 12]: 0 | State 3 respiration driven by succinate at 5XCmax [5, 13]: 0 | State 4 respiration driven by succinate at 5XCmax [5, 13]: 0 | State 3 respiration driven by succinate at 10XCmax [5, 14]: 0 | State 4 respiration driven by glutamate/malate at 10XCmax [5, 14]: 1.46±0.08 | State 4 respiration driven by succinate at 10XCmax [5, 14]: 1.23±0.11 | State 3 respiration driven by succinate at 20XCmax [5, 15]: 0 | State 4 respiration driven by glutamate/malate at 20XCmax [5, 15]: 1.30±0.15 | State 4 respiration driven by succinate at 20XCmax [5, 15]: 1.24±0.05 | State 3 respiration driven by succinate at 30XCmax [5, 16]: 0 | State 4 respiration driven by glutamate/malate at 30XCmax [5, 16]: 1.55±0.06 | State 4 respiration driven by succinate at 30XCmax [5, 16]: 1.35±0.18 | RCC V at 5XCmax (RCC V): 0 | Swelling 1XCmax ([9]; 1XCmax): 0 | Swelling 2.5XCmax ([9]; 2.5XCmax): 0 | Swelling 5XCmax ([9]; 5XCmax): 0 | Swelling 10XCmax ([9]; 10XCmax): 0 | Swelling 20XCmax ([9]; 20XCmax): 0.48±0.01 | Swelling 30XCmax ([9]; 30XCmax): 0.46±0.01

Source: article PMC5515969, “Effects of 31 FDA approved small-molecule kinase inhibitors on isolated rat liver mitochondria” (Archives of Toxicology, 2016)
